Laboratory results reported in ChEMBL document CHEMBL3885861, “Open TG-GATES”.

Species on record: Rattus norvegicus
Assay: Open TG-GATES - Regimen: Single
Type: toxicity, organism-based, Sprague-Dawley
Parameters: regimen Single, gender Male, age 6 weeks
Settings: in vivo, po, 10 mg/kg, route gavage, dose level Low; for APTT / Bas / Eos / Fbg / Hb / Ht / Lym / MCH / MCHC / MCV / Mono / Neu / PT / Plat / RBC / Ret / WBC: tissue Blood; for KIDNEY_L / KIDNEY_R / KIDNEY_TOTAL: tissue Kidney; for LIVER: tissue Liver; for A/G / ALP / ALT / AST / BUN / CRE / Ca / Cl / DBIL / GLC / IP / K / LDH / Na / PL / RALB / TBIL / TC / TG / TP / gamma-GTP: tissue Plasma

## CN(C)CCN(Cc1cccs1)c1ccccn1
3 h
  TERMINAL_BW: 185 g
  APTT: 20.7 s
  Bas: 0%
  Eos: 0.6%
  Fbg: 285 mg/dL
  Hb: 13.4 g/dL
  Ht: 40.7%
  Lym: 79.6%
  MCH: 21.2 pg
  MCHC: 32.9%
  MCV: 64.6 fL
  Mono: 2%
  Neu: 17.2%
  PT: 16.4 s
  Plat: 111.1 x10_4/uL
  RBC: 630.4 x10_4/ul
  Ret: 7.5%
  WBC: 82 x10_2/uL
  KIDNEY_L: 0.8 g
  KIDNEY_R: 0.8 g
  KIDNEY_TOTAL: 1.6 g
  LIVER: 8.1 g
  A/G: 1.3
  ALP: 1664.4 IU/L
  ALT: 41.2 IU/L
  AST: 77.8 IU/L
  BUN: 13.6 mg/dL
  CRE: 0.2 mg/dL
  Ca: 10.5 mg/dL
  Cl: 107.6 meq/L
  DBIL: 0.002 mg/dL
  GLC: 171.6 mg/dL
  IP: 8 mg/dL
  K: 4.2 meq/L
  LDH: 205.8 IU/L
  Na: 144 meq/L
  PL: 125.4 mg/dL
  RALB: 3 g/dL
  TBIL: 0.014 mg/dL
  TC: 67.8 mg/dL
  TG: 43.2 mg/dL
  TP: 5.3 g/dL
  gamma-GTP: 1.2 IU/L
6 h
  TERMINAL_BW: 188.4 g
  APTT: 20.6 s
  Bas: 0%
  Eos: 0.6%
  Fbg: 294.6 mg/dL
  Hb: 12.7 g/dL
  Ht: 39%
  Lym: 77.8%
  MCH: 21.3 pg
  MCHC: 32.6%
  MCV: 65.3 fL
  Mono: 2.2%
  Neu: 18.6%
  PT: 17.1 s
  Plat: 119.7 x10_4/uL
  RBC: 597.6 x10_4/ul
  Ret: 7.6%
  WBC: 70.2 x10_2/uL
  KIDNEY_L: 0.9 g
  KIDNEY_R: 0.9 g
  KIDNEY_TOTAL: 1.9 g
  LIVER: 8.2 g
  A/G: 1.3
  ALP: 1485.8 IU/L
  ALT: 37.6 IU/L
  AST: 70.2 IU/L
  BUN: 10.8 mg/dL
  CRE: 0.1 mg/dL
  Ca: 10.3 mg/dL
  Cl: 106.6 meq/L
  DBIL: 0.002 mg/dL
  GLC: 171.6 mg/dL
  IP: 9.6 mg/dL
  K: 4.4 meq/L
  LDH: 202.4 IU/L
  Na: 141.6 meq/L
  PL: 124 mg/dL
  RALB: 2.9 g/dL
  TBIL: 0.016 mg/dL
  TC: 70.6 mg/dL
  TG: 63.6 mg/dL
  TP: 5.3 g/dL
  gamma-GTP: 1 IU/L
9 h
  TERMINAL_BW: 182.3 g
  APTT: 20.7 s
  Bas: 0%
  Eos: 0.4%
  Fbg: 314.8 mg/dL
  Hb: 12.9 g/dL
  Ht: 38.8%
  Lym: 77.4%
  MCH: 20.8 pg
  MCHC: 33.3%
  MCV: 62.5 fL
  Mono: 2.2%
  Neu: 19.4%
  PT: 15.9 s
  Plat: 114.9 x10_4/uL
  RBC: 621.8 x10_4/ul
  Ret: 7.4%
  WBC: 62 x10_2/uL
  KIDNEY_L: 0.8 g
  KIDNEY_R: 0.9 g
  KIDNEY_TOTAL: 1.7 g
  LIVER: 7.8 g
  A/G: 1.2
  ALP: 1429.4 IU/L
  ALT: 30.2 IU/L
  AST: 62.8 IU/L
  BUN: 11.2 mg/dL
  CRE: 0.1 mg/dL
  Ca: 10.4 mg/dL
  Cl: 106.4 meq/L
  DBIL: 0 mg/dL
  GLC: 171 mg/dL
  IP: 9.6 mg/dL
  K: 4.2 meq/L
  LDH: 171 IU/L
  Na: 142.4 meq/L
  PL: 129 mg/dL
  RALB: 3 g/dL
  TBIL: 0.018 mg/dL
  TC: 67.2 mg/dL
  TG: 69.2 mg/dL
  TP: 5.4 g/dL
  gamma-GTP: 1 IU/L
24 h
  TERMINAL_BW: 197.6 g
  APTT: 19.8 s
  Bas: 0%
  Eos: 0.5%
  Fbg: 282.8 mg/dL
  Hb: 12.7 g/dL
  Ht: 38.4%
  Lym: 80.5%
  MCH: 21.8 pg
  MCHC: 33.1%
  MCV: 65.8 fL
  Mono: 1.8%
  Neu: 16.8%
  PT: 16.6 s
  Plat: 114.6 x10_4/uL
  RBC: 584 x10_4/ul
  Ret: 7.2%
  WBC: 94 x10_2/uL
  KIDNEY_L: 0.9 g
  KIDNEY_R: 0.9 g
  KIDNEY_TOTAL: 1.7 g
  LIVER: 9.3 g
  A/G: 1.2
  ALP: 1858.2 IU/L
  ALT: 42.2 IU/L
  AST: 69.6 IU/L
  BUN: 16.4 mg/dL
  CRE: 0.2 mg/dL
  Ca: 10.7 mg/dL
  Cl: 107.4 meq/L
  DBIL: 0.002 mg/dL
  GLC: 180.6 mg/dL
  IP: 7.3 mg/dL
  K: 4.3 meq/L
  LDH: 223.2 IU/L
  Na: 142.8 meq/L
  PL: 145.4 mg/dL
  RALB: 2.9 g/dL
  TBIL: 0.008 mg/dL
  TC: 75.2 mg/dL
  TG: 131.8 mg/dL
  TP: 5.3 g/dL
  gamma-GTP: 1 IU/L
